We go through 14 molecules from patent publication US12410171B2, “Tropomyosin receptor kinase (TRK) degradation compounds and methods of use” (Cullgen (Shanghai), Inc., priority 2020, dated 2025).

Where two headings read alike, the source gives them in different places. Bounds are passed on as bounds.

For one experiment, the system named is KM12 cells. The experiment is described as follows: KM12 cell viability (CellTiter-Glo). The format is cell-based. As to conditions: Homo sapiens. The method in brief: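 KM12 cells seeded at 5000 per well in RPMI 1640 + 10% FBS and exposed 3 days to serial dilutions (11-point 3-fold, 8-point 3-fold from 1000 nM, or 12-point 2-fold). Viability by CellTiter-Glo; IC50 from least-squares nonlinear regression.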
A general note: In ATP-based viability assays light output follows the ATP content of the culture.

The target of another experiment is T1, TPM3-TRKA fusion protein (Homo sapiens, UniProt P04629).
T1 construct: The resulted chimeric proteins always retain the kinase domain of TRK proteins; TPM3 (fusion partner, N-terminal part of tropomyosin alpha-3, P06753); endogenous in cells; host or cells: KM12 colon cancer cells; the other entry of the earlier key: TPM3 (P06753, Tropomyosin alpha-3 chain)
The experiment is described as follows: TPM3-TRKA fusion protein levels in KM12 cells (Western blot). Format: cell-based. As to conditions: read-out: Degradation (at 10 nM). A digest of the protocol: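 KM12 colon cancer cells were treated with DMSO or compounds at 0.1–100 nM, 0.4–30 nM or other stated concentrations for 4, 8–16 or 16 h. RIPA lysates were BCA-normalized and resolved by SDS-PAGE. TPM3-TRKA was detected by chemiluminescent Western blot, with bands quantified by densitometry.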
On the technique in general: A western blot detects proteins with antibodies after separation by electrophoresis.

Setting [1] is: 72 h, KM12 cell viability, CellTiter-Glo, three days treatment, read-out: IC50.
[2] abbreviates: 16 h, TPM3-TRKA degradation in KM12 cells at 10 nM compound, category of percentage degradation.

T1 sequence (P04629 with tags, fused parts or gaps): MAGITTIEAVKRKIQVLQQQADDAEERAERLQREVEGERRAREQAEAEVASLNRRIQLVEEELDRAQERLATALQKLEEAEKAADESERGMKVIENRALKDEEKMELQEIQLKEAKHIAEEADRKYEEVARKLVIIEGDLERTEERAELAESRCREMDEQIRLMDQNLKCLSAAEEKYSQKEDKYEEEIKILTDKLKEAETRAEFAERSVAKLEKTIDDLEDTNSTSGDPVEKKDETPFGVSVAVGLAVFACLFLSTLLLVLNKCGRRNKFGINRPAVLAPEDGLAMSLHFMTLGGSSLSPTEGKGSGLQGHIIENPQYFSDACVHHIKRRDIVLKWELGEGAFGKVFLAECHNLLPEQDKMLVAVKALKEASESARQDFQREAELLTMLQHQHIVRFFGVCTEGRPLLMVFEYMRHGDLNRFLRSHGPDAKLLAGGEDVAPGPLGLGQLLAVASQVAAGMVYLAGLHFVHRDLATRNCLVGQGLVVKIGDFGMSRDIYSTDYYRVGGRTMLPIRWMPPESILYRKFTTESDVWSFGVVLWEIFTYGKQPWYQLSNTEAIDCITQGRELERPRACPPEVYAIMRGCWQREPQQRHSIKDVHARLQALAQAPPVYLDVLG

For the molecule `Cn1c(=O)n(C2CCC(=O)NC2=O)c2ccc(OCCN3CCN(c4cccc(-c5cnc6ccc(N7CCC[C@@H]7c7cccc(F)c7)nn56)n4)CC3)cc21` (stereo partly drawn) [TR-246, 3-(5-(2-(4-(6-(6-((R)-2-(3-Fluorophenyl)pyrrolidin-1-yl)imidazo[1,2-b]pyridazin-3-yl)pyridin-2-yl)piperazin-1-yl)ethoxy)-3-methyl-2-oxo-2,3-dihydro-1H-benzo[d]imidazol-1-yl)piperidine-2,6-dione], the IC50 in the experiment on KM12 cells (setting [1]) was found to be 101 nM. For the same molecule, at TPM3-TRKA fusion protein (setting [2]), the percent degradation of TPM3-TRKA protein at 0.01 µM was greater than 80%.

Consider `O=C1CCC(n2c(=O)oc3c(NCCN4CCN(c5cccc(-c6cnc7ccc(N8CCC[C@@H]8c8cccc(F)c8)nn67)n5)CC4)cccc32)C(=O)N1` (stereo partly drawn) [TR-247, 3-(7-((2-(4-(6-(6-((R)-2-(3-Fluorophenyl)pyrrolidin-1-yl)imidazo[1,2-b]pyridazin-3-yl)pyridin-2-yl)piperazin-1-yl)ethyl)amino)-2-oxobenzo[d]oxazol-3 (2H)-yl)piperidine-2,6-dione], for which, in the experiment on KM12 cells (setting [1]), the IC50 came out at 8.2 nM. Also, the percent degradation of TPM3-TRKA protein at 0.01 µM on TPM3-TRKA fusion protein (setting [2]) is greater than 80%.

As for `O=C1CCC(N2C(=O)c3ccc(CN4CC(CN5CCN(c6cccc(-c7cnc8ccc(N9CCC[C@@H]9c9cccc(F)c9)nn78)n6)CC5)C4)cc3C2=O)C(=O)N1` (stereo partly drawn) [TR-248, 2-(2,6-Dioxopiperidin-3-yl)-5-((3-((4-(6-(6-((R)-2-(3-fluorophenyl)pyrrolidin-1-yl)imidazo[1,2-b]pyridazin-3-yl)pyridin-2-yl)piperazin-1-yl)methyl)azetidin-1-yl)methyl)isoindoline-1,3-dione], the IC50 in the experiment on KM12 cells (setting [1]) was determined as 27.4 nM. Also, the percent degradation of TPM3-TRKA protein at 0.01 µM on TPM3-TRKA fusion protein (setting [2]) is greater than 80%.

For `O=C1CCC(N2C(=O)c3ccc(CN4CC(CN5CCN(c6ccc(C(=O)Nc7n[nH]c8ccc(Cc9cc(F)cc(F)c9)cc78)c(NC7CCOCC7)c6)CC5)C4)cc3C2=O)C(=O)N1` (stereo not shown) [TR-249, N-(5-(3,5-difluorobenzyl)-1H-indazol-3-yl)-4-(4-((1-((2-(2,6-dioxopiperidin-3-yl)-1,3-dioxoisoindolin-5-yl)methyl)azetidin-3-yl)methyl)piperazin-1-yl)-2-((tetrahydro-2H-pyran-4-yl)amino)benzamide], the IC50 in the experiment with KM12 cells (setting [1]) was 15.1 nM. Further, the percent degradation of TPM3-TRKA protein at 0.01 µM on TPM3-TRKA fusion protein (setting [2]) is greater than 80%.

With `Cn1c(=O)n(C2CCC(=O)NC2=O)c2ccc(N3CC(CN4CCN(c5cccc(-c6cnc7ccc(N8CCC[C@@H]8c8cccc(F)c8)nn67)n5)CC4)C3)cc21` (stereo partly drawn) [TR-250, 3-(5-(3-((4-(6-(6-((R)-2-(3-fluorophenyl)pyrrolidin-1-yl)imidazo[1,2-b]pyridazin-3-yl)pyridin-2-yl)piperazin-1-yl)methyl)azetidin-1-yl)-3-methyl-2-oxo-2,3-dihydro-1H-benzo[d]imidazol-1-yl)piperidine-2,6-dione], the IC50 with KM12 cells (setting [1]) came to 16.1 nM. Also, the percent degradation of TPM3-TRKA protein at 0.01 µM at TPM3-TRKA fusion protein (setting [2]) was greater than 80%.

For `O=C1CCC(N2C(=O)c3ccc(CN4CC(CN5CCN(c6ccc(C(=O)Nc7n[nH]c8ccc(Cc9cc(F)cc(F)c9)cc78)c(NCCF)c6)CC5)C4)cc3C2=O)C(=O)N1` (stereo not shown) [TR-251], the IC50 with KM12 cells (setting [1]) turned out to be 46.5 nM. Further, on TPM3-TRKA fusion protein (setting [2]), the percent degradation of TPM3-TRKA protein at 0.01 µM is greater than 80%.

In the case of `O=C1CCC(N2C(=O)c3ccc(CN4CC(N5CCN(c6ccc(C(=O)Nc7n[nH]c8ccc(Cc9cc(F)cc(F)c9)cc78)c(NCCF)c6)CC5)C4)cc3C2=O)C(=O)N1` (stereo not drawn) [TR-252, N—(S-(3,5-Difluorobenzyl)-1H-indazol-3-yl)-4-(4-(1-((2-(2,6-dioxopiperidin-3-yl)-1,3-dioxoisoindolin-5-yl)methyl)azetidin-3-yl)piperazin-1-yl)-2-((2-fluoroethyl)amino)benzamide], the IC50 with KM12 cells (KM12, 72 h) was 47.6 nM. In addition, on TPM3-TRKA fusion protein (KM12, 16 h), the percent degradation of TPM3-TRKA protein at 0.01 µM is greater than 80%.

Consider `O=C1CCC(N2Cc3cc(C#CCN4CCN(c5ccc(C(=O)Nc6n[nH]c7ccc(Cc8cc(F)cc(F)c8)cc67)c(NC6CCOCC6)c5)CC4)ccc3C2=O)C(=O)N1` (stereo not shown) [TR-253, N-(5-(3,5-Difluorobenzyl)-1H-indazol-3-yl)-4-(4-(3-(2-(2,6-dioxopiperidin-3-yl)-1-oxoisoindolin-5-yl)prop-2-yn-1-yl)piperazin-1-yl)-2-((tetrahydro-2H-pyran-4-yl)amino)benzamide], for which the IC50 in the experiment on KM12 cells (setting [1]) came to 6.9 nM. In addition, the percent degradation of TPM3-TRKA protein at 0.01 µM on TPM3-TRKA fusion protein (setting [2]) was greater than 80%.

In the experiment with KM12 cells (KM12, 72 h), `O=C1CCC(N2C(=O)c3ccc(CN4CC(N5CCN(c6ccc(C(=O)Nc7n[nH]c8ccc(Cc9cc(F)cc(F)c9)cc78)c(NC7CCOCC7)c6)CC5)C4)cc3C2=O)C(=O)N1` (stereo not shown) [TR-254, N-(5-(3,5-difluorobenzyl)-1H-indazol-3-yl)-4-(4-(1-((2-(2,6-dioxopiperidin-3-yl)-1,3-dioxoisoindolin-5-yl)methyl)azetidin-3-yl)piperazin-1-yl)-2-((tetrahydro-2H-pyran-4-yl)amino)benzamide] returned an IC50 of 20.3 nM. The percent degradation of TPM3-TRKA protein at 0.01 µM at TPM3-TRKA fusion protein (KM12, 16 h) is greater than 80%.

With `O=C1CCC(N2Cc3cc(C#CCN4CCN(c5ccc(C(=O)Nc6n[nH]c7ccc(Cc8cc(F)cc(F)c8)cc67)c(NCCF)c5)CC4)ccc3C2=O)C(=O)N1` (stereo not drawn) [TR-255, N—(S-(3,5-Difluorobenzyl)-1H-indazol-3-yl)-4-(4-(3-(2-(2,6-dioxopiperidin-3-yl)-1-oxoisoindolin-5-yl)prop-2-yn-1-yl)piperazin-1-yl)-2-((2-fluoroethyl)amino)benzamide], the IC50 with KM12 cells (setting [1]) is 14.4 nM. The percent degradation of TPM3-TRKA protein at 0.01 µM at TPM3-TRKA fusion protein (setting [2]) was greater than 80%.

As for `O=C1CCC(N2Cc3cc(C#CCN4CCN(c5ccc(C(=O)Nc6n[nH]c7ccc(Cc8cc(F)cc(F)c8)cc67)cc5)CC4)ccc3C2=O)C(=O)N1` (stereo not drawn) [TR-256, N—(S-(3,5-Difluorobenzyl)-1H-indazol-3-yl)-4-(4-(3-(2-(2,6-dioxopiperidin-3-yl)-1-oxoisoindolin-5-yl)prop-2-yn-1-yl)piperazin-1˜yl)benzamide], the IC50 in the experiment with KM12 cells (setting [1]) is 46.9 nM. In addition, on TPM3-TRKA fusion protein (setting [2]), the percent degradation of TPM3-TRKA protein at 0.01 µM was 50 to 80%.

Regarding `Cn1c(=O)n(C2CCC(=O)NC2=O)c2cccc(N3CC(CN4CCN(c5cccc(-c6cnc7ccc(N8CCC[C@@H]8c8cccc(F)c8)nn67)n5)CC4)C3)c21` (stereo partly drawn) [TR-258, 3-(4-(3-((4-(6-(6-((R)-2-(3-fluorophenyl)pyrrolidin-1-yl)imidazo[1,2-b]pyridazin-3-yl)pyridin-2-yl)piperazin-1-yl)methyl)azetidin-1-yl)-3-methyl-2-oxo-2,3-dihydro-1H-benzo[d]imidazol-1-yl)piperidine-2,6-dione], in the experiment on KM12 cells (setting [1]), the IC50 is 10.4 nM. Further, the percent degradation of TPM3-TRKA protein at 0.01 µM at TPM3-TRKA fusion protein (setting [2]) was greater than 80%.

Regarding `Cn1c(=O)n(C2CCC(=O)NC2=O)c2ccc(CCCCN3CCN(c4cccc(-c5cnc6ccc(N7CCC[C@@H]7c7cccc(F)c7)nn56)n4)CC3)cc21` (stereo partly drawn) [TR-259, 3-(5-(4-(4-(6-(6-((R)-2-(3-fluorophenyl)pyrrolidin-1-yl)imidazo[1,2-b]pyridazin-3-yl)pyridin-2-yl)piperazin-1-yl)butyl)-3-methyl-2-oxo-2,3-dihydro-1H-benzo[d]imidazol-1-yl)piperidine-2,6-dione], in the experiment with KM12 cells (setting [1]), the IC50 turned out to be 5.3 nM. Further, on TPM3-TRKA fusion protein (setting [2]), the percent degradation of TPM3-TRKA protein at 0.01 µM was greater than 80%.

Turning to `Cn1c(=O)n(C2CCC(=O)NC2=O)c2ccc(C#CCCN3CCN(c4cccc(-c5cnc6ccc(N7CCC[C@@H]7c7cccc(F)c7)nn56)n4)CC3)cc21` (stereo partly drawn) [TR-260, 3-(5-(4-(4-(6-(6-((R)-2-(3-fluorophenyl)pyrrolidin-1-yl)imidazo[1,2-b]pyridazin-3-yl)pyridin-2-yl)piperazin-1-yl)but-1-yn-1-yl)-3-methyl-2-oxo-2,3-dihydro-1H-benzo[d]imidazol-1-yl)piperidine-2,6-dione], in the experiment on KM12 cells (setting [1]), the IC50 was determined as 26.4 nM. The percent degradation of TPM3-TRKA protein at 0.01 µM at TPM3-TRKA fusion protein (setting [2]) is greater than 80%.

By IC50 is commonly meant the midpoint of a concentration-inhibition curve.
